# In patent publication US12496327B2, “Methods and compositions for restoring STMN2 levels” (President and Fellows of Harvard College, priority 2019, dated 2025):
# Where a SMILES comes first, the peptide text is derived from it. The star is where a group is joined. Cbz = O=C(OCc1ccccc1)*
# Experiments:
# STMN2 cryptic exon = experiment: RT-PCR detection of STMN2 cryptic exon in hMNs; type: cell-based, human; details: hMNs treated with proteasome inhibitor
# Text: TDP-43 plays an important role in the nucleus regulating RNA splicing, and recent studies highlight its ability to suppress non-conserved or cryptic exons to maintain intron integrity (80). When cryptic exons are included in RNA transcripts, in many cases, their inclusion can affect normal levels of the gene product by disrupting its translation or by promoting nonsense-mediated decay (80). […] The sequencing data was examined for evidence of cryptic exons in genes observed to be reproducibly regulated by TDP-43 in human cancer cells (81). […] To accomplish this goal, an RT-PCR assay was developed to detect transcripts containing the cryptic exon (FIG. 5F). […] Total RNA was isolated from neurons using RNeasy Mini Kit (Qiagen) according to manufacturer's instructions. A total of 300-1000 ng of total RNA was used to synthesize cDNA by reverse transcription according to the iSCRIPT kit (Bio-rad). RT-PCR was then performed using one cryptic exon-specific primer and then analyzed using the Agilent 2200 Tapestation.
# TDP-43 [1] = experiment: Immunoblot of TDP-43 in detergent-soluble (RIPA) and detergent-insoluble (UREA) fractions; type: cell-based, human
# Procedure: To determine what happened to TDP-43 after proteasome inhibition, TDP-43 levels were examined by immunoblot analysis in both the detergent-soluble and detergent-insoluble fractions. […] Finally, STMN2 levels in neurons treated with either a short-term high dose or a long-term low dose of MG-132 were probed.
# For analysis of TDP-43 and STMN2 protein expression levels, d10 MNs were lysed in RIPA buffer (150 mM Sodium Chloride; 1% Triton X-100; 0.5% sodium deoxycholate; 0.1% SDS; 50 mM Tris pH 8.0) containing protease and phosphatase inhibitors (Roche) for 20 min on ice, and centrifuged at high speed. 200 μL of RIPA buffer per well of 24-well culture were routinely used, which yielded ˜20 μg of total protein as determined by BCA (Thermo Scientific). After two washes with RIPA buffer, insoluble pellets were resuspended in 200 μl of UREA buffer (Bio-Rad). For immunoblot assays 2-3 μg of total protein were separated by SDS-PAGE (BioRad), transferred to PDVF membranes (BioRad) and probed with antibodies against TDP-43 (1:1000, ProteinTech Group), GAPDH (1:1000, Millipore) and STMN2 (1:3000, Novus). Insoluble pellets were loaded based on protein concentration of correspondent RIPA-soluble counterparts. […] GAPDH levels were used to normalized each sample, and LiCor software was used to quantitate protein band signal.
# STMN2 transcript = experiment: qRT-PCR analysis of STMN2 expression in hMNs; type: cell-based, human; details: either a short-term high dose or a long-term low dose, both cases
# Procedure: Total RNA was isolated from d10 MNs for RNA-Seq experiments and validation assays using Trizol LS (Invitrogen) according to manufacturer's instructions. 500 μL were added per well of the 24-well cultures. A total of 300-1000 ng of total RNA was used to synthesize cDNA by reverse transcription according to the iSCRIPT kit (Bio-rad). Quantitative RT-PCR (qRT-PCR) was then performed using SYBR green (Bio-Rad) and the iCycler system (Bio-rad). Quantitative levels for all genes assayed were normalized using GAPDH expression. […] All primer sequences are available upon request. For next-generation RNA sequencing (RNA-Seq), at least two technical replicas per siRNA sample or AAVS1-TDP43 genotype were included in the analyses. After RNA extraction, samples with RNA integrity numbers (RIN) above 7.5, determined by a bioAnalyzer, were used for library preparation. In brief, RNA sequencing libraries were generated from ˜250 ng of total RNA using the illumina TruSeq RNA kit v2, according to the manufacturer's directions. Libraries were sequenced at the Harvard Bauer Core Sequencing facility on a HiSeq 2000 platform. All FASTQ files were analyzed using the bcbioRNASeq workflow and toolchain (90). The FASTQ files were aligned to the GRCh37/hg19 reference genome. Differential expression testing was performed using DESeq2 suite of bioinformatics tools (38). […]
# motor neurons = experiment: Cell Titer Glo neuronal survival assay; type: cell-based, human
# Text: (§1) N=6 separate wells of neurons. (Unpaired t test, P value <0.05). […] N=triplicate wells. Cells are viable after 1 day of treatment at all the concentrations tested and lower concentrations are tolerated for more extended periods of time. […] N=4 separate wells of neurons (Unpaired t test, P value <0.05).
# (§2) A previous study established that proteasome inhibition in hMNs could trigger accumulation of mutant SOD-1 (31). It was, therefore, examined whether MG-132-mediated proteasome inhibition affected TDP-43 localization in hMNs as a potential model of sporadic ALS. First, the range and timing of small molecule treatment that could inhibit the proteasome without inducing overt cellular toxicity was established (FIGS. 14A-14D). […] Then a pulse-chase experiment was performed to determine the consequences of proteasome inhibition on TDP-43 localization (FIG. 5A). […] Thus, proteasome inhibition in hMNs induces a TDP-43 mislocalization that is reversible.
# proteasome = experiment: Proteasome activity assay (luciferase substrate) in neurons treated with MG-132; type: cell-based, human
# Text: as §1, §2
# STMN2 mRNA = STMN2 mRNA expression in HUES3, IG2 and CN7 cell lines stressed with MG132; type: cell-based, human
# Procedure: Three cell lines, HUES3, IG2 (Stmn2 KO), and CN7 (cryptic exon deletion) were treated with normal media or media+1 uM MG132 for 24 hours to stress the cells. In HUES3 cells, the stressed condition had 52% STMN2 mRNA expression compared to the unstressed condition. In IG2 (Stmn2 KO) condition, unstressed cells had 13% expression, and when stressed, expression increased to 42%. […] It was shown that if several exons are knocked out the expression goes down, but if the TDP-43 binding site is removed, expression goes way up.
# TDP-43 [2] = experiment: TDP-43 localization by immunostaining, Pearson's correlation with DAPI; type: cell-based, human
# Procedure: as §2
# For immunofluorescence, cells were fixed with ice-cold 4% PFA for 15 minutes at 4° C., permeabilized with 0.2% Triton-X in 1×PBS for 45 minutes and blocked with 10% donkey serum in 1×PBS-T (0.1% Tween-20) for 1 hour. Cells were then incubated overnight at 4° C. with primary antibody (diluted in blocking solution). At least 4 washes (5 min incubation each) with 1×PBS-T were carried out, before incubating the cells with secondary antibodies for 1 hour at room temperature (diluted in blocking solution). Nuclei were stained with DAPI. […] Micrographs were analyzed using FIJI software to determine the correlation coefficient.
# hMNs = experiment: Neurite outgrowth assay (Sholl analysis) of hMNs; type: cell-based, human; details: STMN2+/+ hMNs, 10 μM
# Procedure: Given the reported role of STMN2 in regulating axonal growth by promoting the dynamic instability of microtubules (77), phenotypic assays were carried out characterizing neurite outgrowth in the STMN2−/− hMNs. After 7 days in culture, sorted hMNs were fixed and stained for β-III-tubulin to label the neuronal processes (FIG. 4E).
# Individual Tuj1-positive neurons used for Sholl analyses were randomly selected and imaged using a Nikon Eclipse TE300 with a 40× objective. The neurites were traced using the ImageJ (NIH) plugin NeuronJ (78), and Sholl analysis was performed using the Sholl tool of Fiji (96), quantifying the number of intersections at 10-μm intervals from the cell body. Statistical analysis was performed by comparing the number of intersections of KO clones with the parental WT line for each 10-μm interval using Prism 6 (Graph Pad, La Jolla, CA, USA). Significance was assessed by a standard Student's t-test, with a p value of p<0.05 considered as significant.
# STMN2 transcripts = experiment: ASO effect on STMN2 cryptic exon and full length transcripts during TDP-43 depletion; type: cell-based
compound,measurement,setting,value
CC(C)C[C@H](NC(=O)[C@H](Cc1ccccc1)NC(=O)c1cnccn1)B(O)O [Bortezomib],transcripts containing the STMN2 cryptic exon (PCR product),STMN2 cryptic exon,presence of transcripts containing the STMN2 cryptic exon
CC(C)C[C@@H](C=O)NC(=O)[C@H](CC(C)C)NC(=O)[C@H](CC(C)C)NC(=O)OCc1ccccc1 [MG-132] (Cbz-Leu-Leu-Leu-aldehyde),TDP-43 levels in soluble lysates,"TDP-43 [1]; control neurons, low dose, detergent-soluble (RIPA) fraction",significantly decreased
same,TDP-43 in UREA (insoluble) fraction,TDP-43 [1]; detergent-insoluble fraction,become insoluble
same,STMN2 mRNA levels,STMN2 transcript,significant decreases
same,cell viability (neuronal survival),"motor neurons; 1 day of treatment, all concentrations tested (FIG. 14D)",viable
same,tolerance of neurons to treatment without overt cellular toxicity,motor neurons; overnight 1 μM treatment,could withstand
same,proteasome activity,"proteasome; neurons treated with MG-132, N=4 wells (FIG. 14E)",significantly decreased proteasome activity
same,proteasome activity,proteasome; overnight 1 μM treatment of hMNs,less than 10 % of normal activity
same,transcripts containing the STMN2 cryptic exon (PCR product),STMN2 cryptic exon,presence of transcripts containing the STMN2 cryptic exon
same,STMN2 mRNA expression,"STMN2 mRNA; CN7 (Cryptic Exon Deletion) cells, 1 uM for 24 hours (stressed)",473%
same,STMN2 mRNA expression,"STMN2 mRNA; HUES3 cells, 1 uM for 24 hours, compared to the unstressed condition",52%
same,STMN2 mRNA expression,"STMN2 mRNA; IG2 (Stmn2 KO) cells, 1 uM for 24 hours (stressed)",42%
same,TDP-43 staining following washout,TDP-43 [2]; 4 days after washout of 24 hour 1 μM pulse,indistinguishable to unchallenged neurons
same,TDP-43 staining in the nucleus,TDP-43 [2]; after 24 hour 1 μM pulse,greatly diminished
C[C@@H](N)[C@H]1CC[C@H](C(=O)Nc2ccncc2)CC1 [Y-27632],neurite outgrowth,hMNs,enhancing the outgrowth
"TCTTCAGTATTGCTATTCAT (2'-MOE nucleotides, further chemistry not given here) [ASO (SEQ ID NO: 11), antisense oligonucleotide targeting the abortive or altered STMN2 RNA]",ability to decrease the abundance of cryptic exon containing transcripts,STMN2 transcripts; 2.5 μM (FIG. 69A),effectiveness
same,ability to increase the abundance of full length STMN2 transcripts,"STMN2 transcripts; 2.5 μM, during TDP-43 depletion (FIG. 69B)",effectiveness
